Test results: BindingDB's records for doi:10.1021/acs.jmedchem.9b00882 (Shenyang Pharmaceutical University, 2019)
Starred links: 1 amine or outer side, 2 acyl side, 3 side chain; linkers in the order of their positions; H or OH if unused. Positions of bridges follow the written chain, without caps; N, C: chain ends. Non-standard residues stand in square brackets, D forms with d. Residues, ends and D or L forms follow the SMILES beside them. ξ: configuration not given here. mXylylene = c1cc(C[*:1])cc(C[*:2])c1; ξhCys = NC(CCS)C(=O)O

Legend:
[1] = Inhibition of HIV1 gp41-induced cell-cell fusion between viral envelope expressing human HL2/3 cells to CD4/CCR5 receptor expressing TZM-bl cells after 6 hrs by luciferase assay
[2] = target: Envelope glycoprotein gp160 (Human immunodeficiency virus 1, UniProt Q6QLK5); assay: Inhibition of HIV1 gp41-induced cell-cell fusion between viral envelope expressing human HL2/3 cells to CD4/CCR5 receptor expressing TZM-bl cells after 6 hrs by luciferase assay
Envelope glycoprotein gp160, sequence (Q6QLK5 whole entry, the tested form may be a part): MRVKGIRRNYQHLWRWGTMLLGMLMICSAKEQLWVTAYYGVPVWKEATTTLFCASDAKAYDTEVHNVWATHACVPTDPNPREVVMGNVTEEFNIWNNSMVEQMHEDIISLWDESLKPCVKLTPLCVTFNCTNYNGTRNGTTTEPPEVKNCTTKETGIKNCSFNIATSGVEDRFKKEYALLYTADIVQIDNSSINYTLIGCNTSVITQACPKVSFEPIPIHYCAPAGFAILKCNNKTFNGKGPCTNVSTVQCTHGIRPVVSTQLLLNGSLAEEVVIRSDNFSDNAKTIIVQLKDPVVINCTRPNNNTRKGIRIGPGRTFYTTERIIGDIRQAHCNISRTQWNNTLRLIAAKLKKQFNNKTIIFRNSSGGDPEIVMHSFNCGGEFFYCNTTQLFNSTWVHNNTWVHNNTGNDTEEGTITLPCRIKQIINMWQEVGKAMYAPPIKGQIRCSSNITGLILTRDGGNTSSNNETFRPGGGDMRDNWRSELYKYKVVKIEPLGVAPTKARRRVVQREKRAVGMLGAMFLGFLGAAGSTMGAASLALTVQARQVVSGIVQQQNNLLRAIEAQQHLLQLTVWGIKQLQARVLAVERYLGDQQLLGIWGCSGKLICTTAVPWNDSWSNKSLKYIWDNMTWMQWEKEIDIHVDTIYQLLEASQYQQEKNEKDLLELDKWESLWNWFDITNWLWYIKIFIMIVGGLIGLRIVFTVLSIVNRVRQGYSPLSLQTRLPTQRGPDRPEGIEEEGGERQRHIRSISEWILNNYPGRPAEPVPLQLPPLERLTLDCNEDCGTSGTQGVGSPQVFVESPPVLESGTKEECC

[3] = Inhibition of HIV1 gp41-induced cell-cell fusion between viral envelope expressing human HL2/3 cells to CD4/CCR5 receptor expressing TZM-bl cells at 4:1 compound to HP23 ratio incubated for 6 hrs by luciferase reporter gene assay
[4] = Inhibition of HIV1 gp41-induced cell-cell fusion between viral envelope expressing human HL2/3 cells to CD4/CCR5 receptor expressing TZM-bl cells at 1:1 ratio of hCS6ERE to compound incubated for 6 hrs by luciferase reporter gene assay
[5] = Inhibition of HIV1 gp41-induced cell-cell fusion between viral envelope expressing human HL2/3 cells to CD4/CCR5 receptor expressing TZM-bl cells at 4:1 ratio of hCS6ERE to compound incubated for 6 hrs by luciferase reporter gene assay
[6] = Inhibition of HIV1 gp41-induced cell-cell fusion between viral envelope expressing human HL2/3 cells to CD4/CCR5 receptor expressing TZM-bl cells at 2:1 ratio of hCS6ERE to compound incubated for 6 hrs by luciferase reporter gene assay

Molecule	EC50 [1] [nM]	also measured
CC[C@H](C)[C@H](NC(C)=O)C(=O)N[C@@H](CCC(=O)O)C(=O)N[C@@H](C)C(=O)N[C@@H](CC(C)C)C(=O)N[C@H](C(=O)N[C@@H](CCCNC(=N)N)C(=O)N[C@@H](C)C(=O)N[C@@H](C)C(=O)N[C@@H](CCC(N)=O)C(=O)N[C@H]1CSCc2cccc(c2)CSC[C@@H](C(=O)N[C@@H](CC(N)=O)C(=O)N[C@@H](CCC(=O)O)C(=O)N[C@@H](C)C(=O)N[C@@H](C)C(=O)N[C@@H](CC(C)C)C(=O)N[C@@H](CCCNC(=N)N)C(=O)N[C@@H](CCC(=O)O)C(=O)N[C@@H](CC(C)C)C(N)=O)NC(=O)[C@H](CCC(=O)O)NC(=O)[C@H](CCC(N)=O)NC(=O)[C@H](CCC(N)=O)NC1=O)[C@@H](C)CC (Ac-IEALIRAAQCQQECNEAALREL-NH2; linker 10-14 via mXylylene)	171	
CC[C@H](C)[C@H](NC(C)=O)C(=O)N[C@@H](CCC(=O)O)C(=O)N[C@H]1CSCc2cccc(c2)CSC[C@@H](C(=O)N[C@@H](C)C(=O)N[C@@H](CCC(N)=O)C(=O)N[C@@H](CCC(=O)O)C(=O)N[C@@H](CCC(N)=O)C(=O)N[C@@H](CCC(N)=O)C(=O)N[C@@H](CCC(=O)O)C(=O)N[C@@H](CCCCN)C(=O)N[C@@H](CC(N)=O)C(=O)N[C@@H](CCC(=O)O)C(=O)N[C@@H](C)C(=O)N[C@@H](C)C(=O)N[C@@H](CC(C)C)C(=O)N[C@@H](CCCNC(=N)N)C(=O)N[C@@H](CCC(=O)O)C(=O)N[C@@H](CC(C)C)C(N)=O)NC(=O)[C@H](CCCNC(=N)N)NC(=O)[C@H]([C@@H](C)CC)NC(=O)[C@H](CC(C)C)NC1=O (Ac-IECLIRCAQEQQEKNEAALREL-NH2; linker 3-7 via mXylylene)	136	
CC[C@H](C)[C@H](NC(C)=O)C(=O)N[C@@H](CCC(=O)O)C(=O)N[C@@H](C)C(=O)N[C@@H](CC(C)C)C(=O)N[C@H](C(=O)N[C@@H](CCCNC(=N)N)C(=O)N[C@@H](C)C(=O)N[C@@H](C)C(=O)N[C@H]1CSCc2cccc(c2)CSC[C@@H](C(=O)N[C@@H](CCCCN)C(=O)N[C@@H](CC(N)=O)C(=O)N[C@@H](CCC(=O)O)C(=O)N[C@@H](C)C(=O)N[C@@H](C)C(=O)N[C@@H](CC(C)C)C(=O)N[C@@H](CCCNC(=N)N)C(=O)N[C@@H](CCC(=O)O)C(=O)N[C@@H](CC(C)C)C(N)=O)NC(=O)[C@H](CCC(N)=O)NC(=O)[C@H](CCC(N)=O)NC(=O)[C@H](CCC(=O)O)NC1=O)[C@@H](C)CC (Ac-IEALIRAACEQQCKNEAALREL-NH2; linker 9-13 via mXylylene)	214	
CC[C@H](C)[C@H](NC(C)=O)C(=O)N[C@@H](CCC(=O)O)C(=O)N[C@@H](CCC(=O)O)C(=O)N[C@@H](CC(C)C)C(=O)N[C@H](C(=O)NC1CCSCc2cccc(c2)CSCCC(C(=O)N[C@@H](CCC(N)=O)C(=O)N[C@@H](CCC(N)=O)C(=O)N[C@@H](CCCNC(=N)N)C(=O)N[C@@H](CCCCN)C(=O)N[C@@H](CC(N)=O)C(=O)N[C@@H](CCC(=O)O)C(=O)N[C@@H](CCC(=O)O)C(=O)N[C@@H](C)C(=O)N[C@@H](CC(C)C)C(=O)N[C@@H](CCCNC(=N)N)C(=O)N[C@@H](CCC(=O)O)C(=O)N[C@@H](CC(C)C)C(N)=O)NC(=O)[C@H](CCC(N)=O)NC(=O)[C@H](C)NC(=O)[C@H](C)NC1=O)[C@@H](C)CC (some centres not stated) (Ac-IEELI[ξhCys]AAQ[ξhCys]QQRKNEEALREL-NH2; linker 6-10 via mXylylene)		EC50 [2]: 7.2 nM; EC50 [3]: 7.1 nM
CC[C@H](C)[C@H](NC(C)=O)C(=O)N[C@@H](CCC(=O)O)C(=O)N[C@@H](C)C(=O)N[C@@H](CC(C)C)C(=O)N[C@H](C(=O)N[C@@H](CCCNC(=N)N)C(=O)N[C@@H](C)C(=O)N[C@@H](C)C(=O)N[C@@H](CCC(N)=O)C(=O)N[C@@H](CCC(=O)O)C(=O)N[C@@H](CCC(N)=O)C(=O)N[C@@H](CCC(N)=O)C(=O)N[C@@H](CCC(=O)O)C(=O)N[C@@H](CCCCN)C(=O)N[C@@H](CC(N)=O)C(=O)N[C@H]1CSCc2cccc(c2)CSC[C@@H](C(=O)N[C@@H](CCC(=O)O)C(=O)N[C@@H](CC(C)C)C(N)=O)NC(=O)[C@H](CC(C)C)NC(=O)[C@H](C)NC(=O)[C@H](C)NC1=O)[C@@H](C)CC (Ac-IEALIRAAQEQQEKNCAALCEL-NH2; linker 16-20 via mXylylene)	166	
CC[C@H](C)[C@H](NC(C)=O)C(=O)N[C@H]1CSCc2cccc(c2)CSC[C@@H](C(=O)N[C@@H](C)C(=O)N[C@@H](C)C(=O)N[C@@H](CCC(N)=O)C(=O)N[C@@H](CCC(=O)O)C(=O)N[C@@H](CCC(N)=O)C(=O)N[C@@H](CCC(N)=O)C(=O)N[C@@H](CCC(=O)O)C(=O)N[C@@H](CCCCN)C(=O)N[C@@H](CC(N)=O)C(=O)N[C@@H](CCC(=O)O)C(=O)N[C@@H](C)C(=O)N[C@@H](C)C(=O)N[C@@H](CC(C)C)C(=O)N[C@@H](CCCNC(=N)N)C(=O)N[C@@H](CCC(=O)O)C(=O)N[C@@H](CC(C)C)C(N)=O)NC(=O)[C@H]([C@@H](C)CC)NC(=O)[C@H](CC(C)C)NC(=O)[C@H](C)NC1=O (Ac-ICALICAAQEQQEKNEAALREL-NH2; linker 2-6 via mXylylene)	147	

Second part, led by results:

EC50 [1] [nM]	Molecule	also measured
34	CC[C@H](C)[C@H](NC(C)=O)C(=O)N[C@@H](CCC(=O)O)C(=O)N[C@@H](C)C(=O)N[C@@H](CC(C)C)C(=O)N[C@H](C(=O)NC1CCSCc2cccc(c2)CSCCC(C(=O)N[C@@H](CCC(N)=O)C(=O)N[C@@H](CCC(N)=O)C(=O)N[C@@H](CCC(=O)O)C(=O)N[C@@H](CCCCN)C(=O)N[C@@H](CC(N)=O)C(=O)N[C@@H](CCC(=O)O)C(=O)N[C@@H](C)C(=O)N[C@@H](C)C(=O)N[C@@H](CC(C)C)C(=O)N[C@@H](CCCNC(=N)N)C(=O)N[C@@H](CCC(=O)O)C(=O)N[C@@H](CC(C)C)C(N)=O)NC(=O)[C@H](CCC(N)=O)NC(=O)[C@H](C)NC(=O)[C@H](C)NC1=O)[C@@H](C)CC (some centres not stated) (Ac-IEALI[ξhCys]AAQ[ξhCys]QQEKNEAALREL-NH2; linker 6-10 via mXylylene)	
22	CC[C@H](C)[C@H](NC(C)=O)C(=O)N[C@@H](CCC(=O)O)C(=O)N[C@@H](C)C(=O)N[C@@H](CC(C)C)C(=O)N[C@H](C(=O)NC1CCSCc2cccc(c2)CSCCC(C(=O)N[C@@H](CCC(N)=O)C(=O)N[C@@H](CCC(N)=O)C(=O)N[C@@H](CCCNC(=N)N)C(=O)N[C@@H](CCCCN)C(=O)N[C@@H](CC(N)=O)C(=O)N[C@@H](CCC(=O)O)C(=O)N[C@@H](CCC(=O)O)C(=O)N[C@@H](C)C(=O)N[C@@H](CC(C)C)C(=O)N[C@@H](CCCNC(=N)N)C(=O)N[C@@H](CCC(=O)O)C(=O)N[C@@H](CC(C)C)C(N)=O)NC(=O)[C@H](CCC(N)=O)NC(=O)[C@H](C)NC(=O)[C@H](C)NC1=O)[C@@H](C)CC (some centres not stated) (Ac-IEALI[ξhCys]AAQ[ξhCys]QQRKNEEALREL-NH2; linker 6-10 via mXylylene)	
132	CC[C@H](C)[C@H](NC(C)=O)C(=O)N[C@@H](CCC(=O)O)C(=O)N[C@@H](C)C(=O)N[C@@H](CC(C)C)C(=O)N[C@H](C(=O)N[C@@H](CCCNC(=N)N)C(=O)N[C@@H](C)C(=O)N[C@@H](C)C(=O)N[C@@H](CCC(N)=O)C(=O)N[C@@H](CCC(=O)O)C(=O)N[C@@H](CCC(N)=O)C(=O)N[C@@H](CCC(N)=O)C(=O)N[C@H]1CSCc2cccc(c2)CSC[C@@H](C(=O)N[C@@H](C)C(=O)N[C@@H](CC(C)C)C(=O)N[C@@H](CCCNC(=N)N)C(=O)N[C@@H](CCC(=O)O)C(=O)N[C@@H](CC(C)C)C(N)=O)NC(=O)[C@H](CCC(=O)O)NC(=O)[C@H](CC(N)=O)NC(=O)[C@H](CCCCN)NC1=O)[C@@H](C)CC (Ac-IEALIRAAQEQQCKNECALREL-NH2; linker 13-17 via mXylylene)	
11	H-EMTWEEWEKKIEEYTKKIEEILK-OH	EC50 [4]: 11 nM; EC50 [5]: 1.7 nM; EC50 [6]: 5.3 nM
127	Ac-IEALIRAAQEQQEKNEAALREL-NH2	
123	CC[C@H](C)[C@H](NC(C)=O)C(=O)N[C@@H](CCC(=O)O)C(=O)N[C@@H](C)C(=O)N[C@@H](CC(C)C)C(=O)N[C@H](C(=O)N[C@@H](CCCNC(=N)N)C(=O)N[C@@H](C)C(=O)N[C@@H](C)C(=O)N[C@@H](CCC(N)=O)C(=O)N[C@@H](CCC(=O)O)C(=O)N[C@@H](CCC(N)=O)C(=O)N[C@@H](CCC(N)=O)C(=O)N[C@@H](CCC(=O)O)C(=O)N[C@@H](CCCCN)C(=O)N[C@@H](CC(N)=O)C(=O)N[C@@H](CCC(=O)O)C(=O)N[C@H]1CSCc2cccc(c2)CSC[C@@H](C(=O)N[C@@H](CC(C)C)C(N)=O)NC(=O)[C@H](CCCNC(=N)N)NC(=O)[C@H](CC(C)C)NC(=O)[C@H](C)NC1=O)[C@@H](C)CC (Ac-IEALIRAAQEQQEKNECALRCL-NH2; linker 17-21 via mXylylene)	
96	CC[C@H](C)[C@H](NC(C)=O)C(=O)N[C@@H](CCC(=O)O)C(=O)N[C@@H](C)C(=O)N[C@@H](CC(C)C)C(=O)N[C@H](C(=O)N[C@H]1CSCc2cccc(c2)CSC[C@@H](C(=O)N[C@@H](CCC(N)=O)C(=O)N[C@@H](CCC(N)=O)C(=O)N[C@@H](CCC(=O)O)C(=O)N[C@@H](CCCCN)C(=O)N[C@@H](CC(N)=O)C(=O)N[C@@H](CCC(=O)O)C(=O)N[C@@H](C)C(=O)N[C@@H](C)C(=O)N[C@@H](CC(C)C)C(=O)N[C@@H](CCCNC(=N)N)C(=O)N[C@@H](CCC(=O)O)C(=O)N[C@@H](CC(C)C)C(N)=O)NC(=O)[C@H](CCC(N)=O)NC(=O)[C@H](C)NC(=O)[C@H](C)NC1=O)[C@@H](C)CC (Ac-IEALICAAQCQQEKNEAALREL-NH2; linker 6-10 via mXylylene)	
